According to patent US20170275298A1, “INHIBITORS OF THE RENAL OUTER MEDULLARY POTASSIUM CHANNEL” (Merck Sharp & Dohme Corp., priority 2014, published 2017):

Target: T1, hROMK (hKir1.1) (Homo sapiens, UniProt P48048)
T1 construct: expressed in transfected cells
T1 sequence (P48048 1-391): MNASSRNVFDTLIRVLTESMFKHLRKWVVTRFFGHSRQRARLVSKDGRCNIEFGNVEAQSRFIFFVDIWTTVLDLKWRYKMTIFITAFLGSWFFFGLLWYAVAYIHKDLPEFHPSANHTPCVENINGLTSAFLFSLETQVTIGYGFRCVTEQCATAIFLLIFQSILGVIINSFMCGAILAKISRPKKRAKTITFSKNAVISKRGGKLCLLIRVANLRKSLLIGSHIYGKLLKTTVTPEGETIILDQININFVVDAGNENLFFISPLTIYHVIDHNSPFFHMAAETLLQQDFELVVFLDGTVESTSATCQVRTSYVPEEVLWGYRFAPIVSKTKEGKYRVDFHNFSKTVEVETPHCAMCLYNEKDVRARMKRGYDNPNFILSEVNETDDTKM
Assay: Thallium Flux Assay (ROMK channel functional thallium flux assay)
Type: cell-based
Conditions: HEK293 cells stably expressing hROMK (hKir1.1); FluxOR thallium flux, FLIPR-Tetra, 30 min compound incubation; read-out: ROMK TI IC50
Procedure, shortened: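 HEK293 cells stably expressing hROMK (hKir1.1) loaded with FluxOR dye 90 min at ambient temperature, then compound 30 min before thallium/potassium stimulant (final 3 mM Tl/0.3 mM K). ROMK-sensitive flux defined by 3 μM standard inhibitor; data as % fluorescence change.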

Row | Compound | IC50
1 | Cc1cc(N2CCCC3(CCN(C[C@H](O)c4ccc5c(c4C)COC5=O)CC3)C2=O)sn1 [Example 81, (R)-9-(2-hydroxy-2-(4-methyl-1-oxo-1,3-dihydroisobenzofuran-5-yl)ethyl)-2-(3-methylisothiazol-5-yl)-2,9-diazaspiro[5.5]undecan-1-one] | 175 nM
2 | Cc1c([C@@H](O)CN2CCC3(CC2)CCN(c2nc(CO)ns2)C3=O)ccc2c1COC2=O [Example 83, (R)-8-(2-hydroxy-2-(4-methyl-1-oxo-1,3-dihydroisobenzofuran-5-yl)ethyl)-2-(3-(hydroxymethyl)-1,2,4-thiadiazol-5-yl)-2,8-diazaspiro[4.5]decan-1-one] | 832 nM
3 | Cc1c([C@@H](O)CN2CCC3(CC2)CCN(c2cc(C(F)(F)F)ncn2)C3=O)ccc2c1COC2=O [Example 87, (R)-8-(2-hydroxy-2-(4-methyl-1-oxo-1,3-dihydroisobenzofuran-5-yl)ethyl)-2-(6-(trifluoromethyl)pyrimidin-4-yl)-2,8-diazaspiro[4.5]decan-1-one] | 643 nM
4 | COc1nccc(N2CCC3(CCN(C[C@H](O)c4ccc(-n5cnnn5)nc4C)CC3)C2=O)n1 [Example 89, (R)-8-(2-hydroxy-2-(2-methyl-6-(1H-tetrazol-1-yl)pyridin-3-yl)ethyl)-2-(2-methoxypyrimidin-4-yl)-2,8-diazaspiro[4.5]decan-1-one] | 787 nM
5 | Cc1nc(-n2cnnn2)ccc1[C@@H](O)CN1CCC2(CC1)CCN(c1ccc(=O)n(C)n1)C2=O [Example 93, (R)-8-(2-hydroxy-2-(2-methyl-6-(1H-tetrazol-1-yl)pyridin-3-yl)ethyl)-2-(1-methyl-6-oxo-1,6-dihydropyridazin-3-yl)-2,8-diazaspiro[4.5]decan-1-one] | 259 nM
6 | Cc1c([C@@H](O)CN2CCC3(CC2)CCN(c2cn(C)c(=O)cn2)C3=O)ccc2c1COC2=O [Example 94, (R)-8-(2-hydroxy-2-(4-methyl-1-oxo-1,3-dihydroisobenzofuran-5-yl)ethyl)-2-(4-methyl-5-oxo-4,5-dihydropyrazin-2-yl)-2,8-diazaspiro[4.5]decan-1-one] | 272 nM
7 | Cn1nc(N2CCC3(CCN(C[C@@H](O)c4cccc(-n5cnnn5)c4)CC3)C2=O)ccc1=O [Example 96, (S)-8-(2-(3-(1H-tetrazol-1-yl)phenyl)-2-hydroxyethyl)-2-(1-methyl-6-oxo-1,6-dihydropyridazin-3-yl)-2,8-diazaspiro[4.5]decan-1-one] | 702 nM
8 | Cc1c([C@@H](O)CN2CCC3(CC2)C[C@H](C)N(c2ccc(=O)n(C)n2)C3=O)ccc2c1COC2=O [Example 97, (S)-8-((R)-2-hydroxy-2-(4-methyl-1-oxo-1,3-dihydroisobenzofuran-5-yl)ethyl)-3-methyl-2-(1-methyl-6-oxo-1,6-dihydropyridazin-3-yl)-2,8-diazaspiro[4.5]decan-1-one] | 378 nM
9 | Cc1c([C@@H](O)CN2CCC3(CC2)C[C@@H](C)N(c2ccc(=O)n(C)n2)C3=O)ccc2c1COC2=O [Example 98, (R)-8-((R)-2-hydroxy-2-(4-methyl-1-oxo-1,3-dihydroisobenzofuran-5-yl)ethyl)-3-methyl-2-(1-methyl-6-oxo-1,6-dihydropyridazin-3-yl)-2,8-diazaspiro[4.5]decan-1-one] | 54.7 nM
10 | Cc1nc(-n2cnnn2)ccc1[C@@H](O)CN1CCC2(CC1)CCN(c1ncns1)C2=O [Example 99, (R)-8-(2-hydroxy-2-(2-methyl-6-(1H-tetrazol-1-yl)pyridin-3-yl)ethyl)-2-(1,2,4-thiadiazol-5-yl)-2,8-diazaspiro[4.5]decan-1-one] | 242 nM
11 | O=C1N(c2ccns2)CCC12CCN(C[C@H](O)c1ccc(-n3cnnn3)nc1)CC2 [Example 100, (R)-8-(2-(6-(1H-tetrazol-1-yl)pyridin-3-yl)-2-hydroxyethyl)-2-(isothiazol-5-yl)-2,8-diazaspiro[4.5]decan-1-one] | 769 nM
12 | O=C1N(c2ccns2)CCC12CCN(C[C@@H](O)c1ccc(-n3cnnn3)nc1)CC2 [Example 101, (S)-8-(2-(6-(1H-tetrazol-1-yl)pyridin-3-yl)-2-hydroxyethyl)-2-(isothiazol-5-yl)-2,8-diazaspiro[4.5]decan-1-one] | 203 nM
13 | Cc1c([C@@H](O)CN2CCC3(CC2)OCCN(c2ccc(=O)n(C)n2)C3=O)ccc2c1COC2=O [Example 102, (R)-9-(2-hydroxy-2-(4-methyl-1-oxo-1,3-dihydroisobenzofuran-5-yl)ethyl)-4-(1-methyl-6-oxo-1,6-dihydropyridazin-3-yl)-1-oxa-4,9-diazaspiro[5.5]undecan-5-one] | 349 nM

Next, values leading:

Row | IC50 | Compound
14 | 55.7 nM | COc1cc(N2CCC3(CCN(C[C@H](O)c4ccc5c(c4C)COC5=O)CC3)C2=O)ccn1 [Example 74, (R)-8-(2-hydroxy-2-(4-methyl-1-oxo-1,3-dihydroisobenzofuran-5-yl)ethyl)-2-(2-methoxypyridin-4-yl)-2,8-diazaspiro[4.5]decan-1-one]
15 | 320 nM | Cc1c([C@@H](O)CN2CCC3(CC2)CCN(c2ccc(OC(F)F)nc2)C3=O)ccc2c1COC2=O [Example 76, (R)-2-(6-(difluoromethoxy)pyridin-3-yl)-8-(2-hydroxy-2-(4-methyl-1-oxo-1,3-dihydroisobenzofuran-5-yl)ethyl)-2,8-diazaspiro[4.5]decan-1-one]
16 | 697 nM | COc1ccncc1N1CCC2(CCN(C[C@H](O)c3ccc4c(c3C)COC4=O)CC2)C1=O [Example 77, (R)-8-(2-hydroxy-2-(4-methyl-1-oxo-1,3-dihydroisobenzofuran-5-yl)ethyl)-2-(4-methoxypyridin-3-yl)-2,8-diazaspiro[4.5]decan-1-one]
17 | 56.7 nM | Cc1c([C@@H](O)CN2CCC3(CC2)CC(=O)N(c2ccncc2)C3)ccc2c1COC2=O [Example 79, (R)-8-(2-hydroxy-2-(4-methyl-1-oxo-1,3-dihydroisobenzofuran-5-yl)ethyl)-2-(pyridin-4-yl)-2,8-diazaspiro[4.5]decan-3-one]
18 | 14.3 nM | COc1nccc(N2CCC3(CCN(C[C@H](O)c4ccc5c(c4C)COC5=O)CC3)C2=O)n1 [Example 80, (R)-8-(2-hydroxy-2-(4-methyl-1-oxo-1,3-dihydroisobenzofuran-5-yl)ethyl)-2-(2-methoxypyrimidin-4-yl)-2,8-diazaspiro[4.5]decan-1-one]
19 | 424 nM | Cc1c([C@@H](O)CN2CCC3(CC2)CCN(c2ccc(=O)n(C)c2)C3=O)ccc2c1COC2=O [Example 82, (R)-8-(2-hydroxy-2-(4-methyl-1-oxo-1,3-dihydroisobenzofuran-5-yl)ethyl)-2-(1-methyl-6-oxo-1,6-dihydropyridin-3-yl)-2,8-diazaspiro[4.5]decan-1-one]
20 | 149 nM | COc1cc(N2CC3(CCN(C[C@H](O)c4ccc5c(c4C)COC5=O)CC3)CC2=O)ccn1 [Example 84, (R)-8-(2-hydroxy-2-(4-methyl-1-oxo-1,3-dihydroisobenzofuran-5-yl)ethyl)-2-(2-methoxypyridin-4-yl)-2,8-diazaspiro[4.5]decan-3-one]
21 | 801 nM | Cc1c([C@@H](O)CN2CCC3(CCCN(c4ccncc4)C3=O)CC2)ccc2c1COC2=O [Example 85, (R)-9-(2-hydroxy-2-(4-methyl-1-oxo-1,3-dihydroisobenzofuran-5-yl)ethyl)-2-(pyridin-4-yl)-2,9-diazaspiro[5.5]undecan-1-one]
22 | 561 nM | Cc1c([C@@H](O)CN2CCC3(CC2)CN(c2ccncc2)C(=O)O3)ccc2c1COC2=O [Example 86, (R)-8-(2-hydroxy-2-(4-methyl-1-oxo-1,3-dihydroisobenzofuran-5-yl)ethyl)-3-(pyridin-4-yl)-1-oxa-3,8-diazaspiro[4.5]decan-2-one]
23 | 130 nM | Cc1cc(N2CCC3(CCN(C[C@H](O)c4ccc5c(c4C)COC5=O)CC3)C2=O)ccn1 [Example 88, (R)-8-(2-hydroxy-2-(4-methyl-1-oxo-1,3-dihydroisobenzofuran-5-yl)ethyl)-2-(2-methylpyridin-4-yl)-2,8-diazaspiro[4.5]decan-1-one]
24 | 120 nM | Cc1c([C@@H](O)CN2CCC3(CC2)CCN(c2ccnnc2)C3=O)ccc2c1COC2=O [Example 90, (R)-8-(2-hydroxy-2-(4-methyl-1-oxo-1,3-dihydroisobenzofuran-5-yl)ethyl)-2-(pyridazin-4-yl)-2,8-diazaspiro[4.5]decan-1-one]
25 | 775 nM | Cc1c([C@@H](O)CN2CCC3(CC2)CC(=O)N(c2ccnc(Cl)n2)C3)ccc2c1COC2=O [Example 91, (R)-2-(2-chloropyrimidin-4-yl)-8-(2-hydroxy-2-(4-methyl-1-oxo-1,3-dihydroisobenzofuran-5-yl)ethyl)-2,8-diazaspiro[4.5]decan-3-one]
26 | 110 nM | Cc1c([C@@H](O)CN2CCC3(CC2)CCN(c2ccnc(Cl)n2)C3=O)ccc2c1COC2=O [Example 92, (R)-2-(2-chloropyrimidin-4-yl)-8-(2-hydroxy-2-(4-methyl-1-oxo-1,3-dihydroisobenzofuran-5-yl)ethyl)-2,8-diazaspiro[4.5]decan-1-one]
27 | 488 nM | Cc1c([C@@H](O)CN2CCC3(CC2)CN(c2ccc(=O)n(C)n2)C(=O)O3)ccc2c1COC2=O [Example 95, (R)-8-(2-hydroxy-2-(4-methyl-1-oxo-1,3-dihydroisobenzofuran-5-yl)ethyl)-3-(1-methyl-6-oxo-1,6-dihydropyridazin-3-yl)-1-oxa-3,8-diazaspiro[4.5]decan-2-one]
